In patent publication US20250361226A1, “PHARMACEUTICALLY ACCEPTABLE SALT OF BENZO[C]CHROMAN COMPOUND AND P[…] AND USE OF PHARMACEUTICALLY ACCEPTABLE SALT” (REISTONE BIOPHARMA COMPANY LIMITED, priority 2022, published 2025):

How the values were obtained:
[1] = Dynamic vapor sorption (DVS) with XRPD before and after; assay type: physicochemical
Protocol: (§1) Test conditions for the instruments used in experiments of the present disclosure: • 1. X-ray Powder Diffraction, XRPD • Instrument type: Malver Panalytical Aeris X-ray powder diffractometer • Ray: monochromatic Cu—Kα ray (λ=1.54188) • Scanning mode: θ/2θ, Scanning range (2θ range): 3.5-50° • Voltage: 40 kV, Electric current: 15 mA • 2. Differential Scanning calorimetry, DSC • Instrument type: TA DSC250 • Purge gas: Nitrogen; Nitrogen purge rate: 50 mL/min • Heating rate: 10° C./min • Temperature range: 25° C.-250° C. • 3. Thermogravimetric Analysis, TGA • Instrument type: TA TGA550 • Purge gas: Nitrogen; Nitrogen purge rate: 20 ml/min • Scanning rate: 10° C./min • Temperature range: 30° C.-350° C. • 4. Dynamic vapor sorption (DVS) • Using SMS Intrinsic PLUS, the detection is performed at 25° C., with humidity change of 50%-0%-90% with a step size of 10%, in which the criteria for judging is that the mass change dM/dT for each gradient is less than 0.002%, TMAX is 360 min, and two cycles are performed. • 5. High performance liquid chromatography (HPLC) described in the stability test of the crystal form A of the present disclosure is determined on Agilent 1260 Infinity II.
During the humidity change of 0%-90% RH, the desorption process of the sample coincides with the adsorption process thereof.

[2] = Stability test (influence factor tests: light, temperature, humidity) by HPLC and XRPD; assay type: physicochemical
Protocol: as §1
(§2) In the content detection method by the high performance liquid chromatography described in the present disclosure, HPLC conditions are as follows: chromatographic column, Agilent Eclipse Plus C18 4.6 mm*150 mm, 3.5 μm; mobile phase, A-10 mmol/L solution of sodium dihydrogen phosphate (pH 8.0), and B-ACN; flow rate, 1.0 ml/min; wavelength, 210 nm.
as §2, with “related substances” for “content”, “ammonium acetate,” for “sodium dihydrogen phosphate (pH 8.0),”
It is determined whether light, temperature and humidity have an influence on the stability of crystal form A of hydrochloride salt of the compound of formula I. The crystal form A of hydrochloride salt was placed in a stabilizing chamber in the dark and subjected to influence factor tests using a series of temperature and humidity combinations. After being placed for different days under light and various temperature and humidity conditions, the samples were taken out and compared with the initial crystal form A of hydrochloride salt. […] The samples taken out on the last day under light and various temperature and humidity conditions were subjected to XRPD detection, showing that the crystal form A of hydrochloride salt had no change and had good stability.

Structure (SMILES): Cl.N#Cc1ccc2c(c1)COc1cc(C[C@@H](C#N)NC(=O)[C@@H]3CNCCCO3)c(F)cc1-2 [Crystal form A of hydrochloride salt]
- weight gain by hygroscopicity ([1]; DVS, 25° C., 80% RH): approximately 1.1%
- crystal form before and after DVS detection (XRPD) ([1]; humidity change 0%-90% RH): the crystal form did not change
- Content % ([2]; 25° C. 92% - one week): 99.37%
- Isomers % ([2]; 25° C. 92% - one week): 0.63%
- Content % ([2]; 25° C. 92% - two weeks): 99.31%
- Isomers % ([2]; 25° C. 92% - two weeks): 0.70%
- Content % ([2]; 40° C. 75% - one week): 99.31%
- Isomers % ([2]; 40° C. 75% - one week): 0.69%
- Content % ([2]; 40° C. 75% - two weeks): 99.32%
- Isomers % ([2]; 40° C. 75% - two weeks): 0.68%
- Content % ([2]; 60° C. - one week): 99.31%
- Isomers % ([2]; 60° C. - one week): 0.70%
- Content % ([2]; 60° C. - two weeks): 99.33%
- Isomers % ([2]; 60° C. - two weeks): 0.67%
- increase in isomers of the compound of formula I versus initial (HPLC) ([2]; different days under light and various temperature and humidity conditions): none of them had a significant increase
- Content % ([2]; initial): 99.54%
- Isomers % ([2]; initial): 0.67%
- Content % ([2]; light, 0.5 ICH): 99.44%
- Isomers % ([2]; light, 0.5 ICH): 0.67%
- Content % ([2]; light, 1 ICH): 99.32%
- Isomers % ([2]; light, 1 ICH): 0.67%
- crystal form by XRPD after influence factor tests ([2]; samples of the last day under light and various temperature and humidity conditions): had no change
